Patent publication US20070078097A1, “Method for treating intermittent claudication comprising the administration of propionyl L-carnitine and a concomitant physical training” (priority 2005, published 2007)

Experiments:
[1] = system: patients with claudication; conditions: orally given; randomised placebo-controlled trials of the literature; cited from earlier work
[2] = system: patients with Intermittent Claudication (Leriche-Fontaine Class II); assay: Quality of life questionnaires (PAD-related, SF-36, WIQ), O'Brien global score; type: in vivo, human
Excerpt: (§1) Three parallel, randomized, double-blind, placebo-controlled, phase III studies in patients with Intermittent Claudication (Leriche-Fontaine Class II) represent the basis for the above considerations. They are study ST 261 201 90 INT (hereinafter referred to as the European study); study ST 94 301 (hereinafter referred to as the Hiatt study); and ST 93 301, hereinafter referred to as the Porter study).
(§2) Diagnosis and main criteria for inclusion for these studies were similar, as follows: intermittent claudication of ascertained vascular origin; age between 40 and 80 years; lesions at iliac-femoral and/or femoro-popliteal level confirmed by angiographic or Doppler examination; no pain at rest (Leriche-Fontaine Class III) or ulcerative lesions (Leriche-Fontaine Class IV); history of claudication >1 year; dietary regime and alcohol intake stable during the study. All patients were strongly encouraged to stop smoking and exercise actively. The latter recommendation was to be achieved either through a supervised, vascular rehabilitation-based program, or via an unsupervised, home-based program.
The above studies also assessed quality of life (QoL) as their main secondary efficacy parameter: the European study used the ad-hoc validated PAD-related questionnaire, while the Hiatt and Porter studies used both the very well-known and validated Health Status Survey-Short Form 36 (SF-36) and the Walking Impairment Questionnaire (WIQ).
Similar results were obtained also when considering QoL. Since several questionnaires were used in each study, a global summary statistic was used in order to deal with this issue, as well as with the multiplicity of domains present in each of these questionnaires, i.e., the O'Brien test.

platelet = conditions: literature (Pignatelli et al. 2003); cited from earlier work
[3] = system: patients with Intermittent Claudication (Leriche-Fontaine Class II); assay: Maximum walking distance on treadmill, three phase III placebo-controlled studies; type: in vivo, human; conditions: for MWD at Month 6/Endpoint, Mean / MWD at Month 6/Endpoint, Median: PLC 2 g/day oral, 3 km/h; for MWD Change from Baseline to Endpoint, Mean / MWD Change from Baseline to Endpoint, Median: PLC 2 g/day
Excerpt: as §1, §2
A total of 316 subjects (PLC, 153 subjects; placebo, 163 subjects) were randomized in the primary intention-to-treat population (ITT) of the European study, which was conducted in 39 centers in West and East Europe, and tested PLC (2 g/day) for 12 months vs. placebo. Patients had to have a maximum walking distance (MWD) at baseline between 50-400 m. and variability over the three treadmill tests carried-out at baseline of ≦25%.
A total of 161 subjects (PLC, 85 subjects; placebo, 76 subjects) were randomized in the ITT population of the Hiatt study, which was performed in 10 centers in the USA and Russia, and tested PLC (2 g/day for 6 months) versus placebo.
A total of 155 subjects (ITT population: PLC, 80 subjects; placebo, 75 subjects) were randomized in the 6-month, Porter study, which was conducted in 16 US centers and tested PLC 2 g/day vs. placebo as its primary target population. All randomized patients had baseline MWD between 50-250 m and variability ≦25%.
These phase III studies evaluated physical performance as their primary efficacy parameter. This was assessed by the maximum walking capacity of patients on a treadmill: the European study used a fixed treadmill with 7% slope and 3 km/hour speed; the Hiatt study used a graded treadmill, starting at 0% slope and increasing by 2% every 2 minutes, with a 2 mph speed; the Porter study used a fixed treadmill with 12% slope and 2 mph speed.
Given the non-normality of response distributions for MWD, the comparison between PLC and placebo-treated patients was based on a non-parametric test, i.e., the Cochrane-Mantel-Haenszel test on the within-center, standardized mid-ranks (MODRIDITS) of changes over baseline, stratified by site.

claudicant patients = conditions: six patients; intravenous 3 g bolus followed by infusion of 2 mg/Kg/man for 30 minutes; Brevetti et al. 1988; cited from earlier work
[4] = ITT with concomitant physical exercise, PLC N = 54, P-value vs placebo <0.001
[5] = ITT without concomitant physical exercise, PLC N = 261, P-value vs placebo 0.142
[6] = ITT with concomitant physical exercise, N = 54, P-value vs placebo 0.000
[7] = ITT without concomitant physical exercise, N = 264, P-value vs placebo 0.777

| SMILES | walking distance in patients with claudication [1] | Change in O'Brien scores for QoL questionnaires, Baseline to Endpoint, Mean [2, 4] | Change in O'Brien scores for QoL questionnaires, Baseline to Endpoint, Median [2, 4] | Change in O'Brien scores for QoL questionnaires, Baseline to Endpoint, Mean [2, 5] | Change in O'Brien scores for QoL questionnaires, Baseline to Endpoint, Median [2, 5] | QoL at endpoint compared to the placebo group ([2]; overall ITT subjects, p<0.001) | arachidonic acid accumulation in the phospholipids of platelet membrane (platelet) | platelet thromboxane A2 and O2 formation (platelet) | MWD at Month 6/Endpoint, Mean ([3]; ITT with concomitant physical exercise, N = 54, converted to treadmill 7% slope, baseline mean 249.7) [m] | MWD at Month 6/Endpoint, Median ([3]; ITT with concomitant physical exercise, N = 54, treadmill 7% slope, baseline median 239.2) [m] | MWD Change from Baseline to Endpoint, Mean [3, 6] [m] | MWD Change from Baseline to Endpoint, Median [3, 6] [m] | MWD at Month 6/Endpoint, Mean ([3]; ITT without concomitant physical exercise, N = 264, treadmill 7% slope, baseline mean 205.6) [m] | MWD at Month 6/Endpoint, Median ([3]; ITT without concomitant physical exercise, N = 264, treadmill 7% slope, baseline median 171.7) [m] | MWD Change from Baseline to Endpoint, Mean [3, 7] [m] | MWD Change from Baseline to Endpoint, Median [3, 7] [m] | net PLC advantage over placebo in exercise performance at endpoint ([3]; overall ITT subjects of the three studies, p=0.08) [m] | increase of venous lactate induced by walking test (claudicant patients) |
| --- | --- | --- | --- | --- | --- | --- | --- | --- | --- | --- | --- | --- | --- | --- | --- | --- | --- | --- |
| CCC(=O)O[C@H](CC(=O)[O-])C[N+](C)(C)C [PLC, propionyl L-carnitine] | significant increase | 0.56 | 0.54 | 0.51 | 0.50 | significant improvement | inhibits | reduction | 410.8 | 400.9 | 161.1 | 154.8 | 325.3 | 225.5 | 119.7 | 36.6 | 18.2 | – |
| C[N+](C)(C)C[C@H](O)CC(=O)[O-] [levocarnitine, L-carnitine] | significant increase | – | – | – | – | – | – | – | – | – | – | – | – | – | – | – | – | lowered |
